Results as given in ChEMBL document CHEMBL4840357, “Functionalized Dioxonaphthoimidazoliums: A Redox Cycling Chemotype with Potent Bactericidal Activities against Mycobacterium tuberculosis” (J Med Chem, 2021).
Values after ≈ are worked out from the molar mass of the structure shown. Active and inactive are the calls of the source. The calls are words filed in the database; no cut-off is given here.

What was measured:
[1] = system: Mycobacterium tuberculosis; type: functional; settings: H37Rv ATCC 27294, 168 h, time 7 day
[2] = system: Mycobacterium tuberculosis; type: functional; settings: H37Rv ATCC 27294, 168 h, time 7 day, read-out: MBC99.9
Vero = assay: Cytotoxicity against African green monkey Vero cells assessed as reduction in cell viability incubated for 48 hrs by CellTiter 96 aqueous one solution reagent based assay; settings: Chlorocebus sabaeus
[3] = Selectivity index, ratio of IC50 for African green monkey Vero cells to MIC50 for Mycobacterium tuberculosis H37Rv ATCC 27294; type: toxicity; settings: read-out: Selectivity Index
[4] = system: Mycobacterium tuberculosis; type: functional, organism-based; settings: H37Rv ATCC 27294, time 7.0 day
[5] = Mutagenicity in Salmonella typhimurium TA100 at 1.5 to 64 ug in presence of S9 fraction by ames test; type: toxicity, subcellular, Salmonella enterica subsp. enterica serovar Typhimurium; settings: dose 1.5-64 µg
[6] = Aqueous solubility of compound at pH 7.4; type: physicochemical; settings: buffer
[7] = Permeability of compound incubated for 16 hrs by PAMPA; type: ADME
[8] = Metabolic stability in rat microsomes assessed as half life preincubated for 5 mins followed by NADPH addition and measured upto 45 mins by LC-MS/MS analysis; type: ADME, Microsome; settings: time <=50 min
[9] = Oral bioavailability in Swiss albino mouse at 50 mg/kg measured upto 24 hrs by HPLC-LCMS analysis; type: ADME, organism-based; settings: in vivo
[10] = Volume of distribution in Swiss albino mouse at 50 mg/kg, po or 1 mg/kg, iv measured upto 24 hrs by HPLC-LCMS analysis; type: ADME, organism-based; settings: in vivo
[11] = Clearance in Swiss albino mouse at 50 mg/kg, po or 1 mg/kg, iv measured upto 24 hrs by HPLC-LCMS analysis; type: ADME, organism-based; settings: in vivo
[12] = Half life in Swiss albino mouse at 50 mg/kg, po or 1 mg/kg, iv measured upto 24 hrs by HPLC-LCMS analysis; type: ADME, organism-based; settings: in vivo
[13] = Mutagenicity in Salmonella typhimurium TA98 at 1.5 to 64 ug in presence of S9 fraction by ames test; type: toxicity, subcellular, Salmonella enterica subsp. enterica serovar Typhimurium; settings: dose 1.5-64 µg
[14] = Mutagenicity in Salmonella typhimurium TA98 at 1.5 to 64 ug in absence of S9 fraction by ames test; type: toxicity, Salmonella enterica subsp. enterica serovar Typhimurium; settings: in vivo; dose 1.5-64 µg
[15] = Mutagenicity in Salmonella typhimurium TA100 at 1.5 to 64 ug in absence of S9 fraction by ames test; type: toxicity, Salmonella enterica subsp. enterica serovar Typhimurium; settings: in vivo; dose 1.5-64 µg
[16] = system: Mycolicibacterium smegmatis; assay: Induction of NADH oxidation in Mycobacterium smegmatis mc24517 inverted membrane vesicles; type: functional, Membrane vesicle
[17] = system: Mycolicibacterium smegmatis; assay: Induction of oxygen consumption in Mycobacterium smegmatis mc24517 inverted membrane vesicles; type: functional
[18] = system: Mycolicibacterium smegmatis; assay: Induction of hydrogen […] production in Mycobacterium smegmatis mc24517 inverted membrane vesicles; type: functional
[19] = system: Mycolicibacterium smegmatis; assay: Induction of pH gradient dissipation in Mycobacterium smegmatis mc24517 inverted membrane vesicles at 1 to 2 uM; type: functional; settings: Membrane vesicle, dose 1-2 µM

NNC(=O)c1ccncc1 [ISONIAZID]
MIC50 [1]: 1.6 µM (≈ 0.219 µg/mL)
MIC90 [1]: 3.2 µM (≈ 0.439 µg/mL)

CCCCCCCn1c2c([n+](CCCCC)c1C)C(=O)c1ccccc1C2=O.[Br-]
MIC50 [1]: 0.77 µM
MIC90 [1]: 1.2 µM
MBC [2]: 6.3 µM
IC50 (Vero): 20 µM
selectivity ratio [3]: 26
Activity [4]: Active

CCCCCCCCn1c2c([n+](C3CCC4(CCCCC4)CC3)c1C)C(=O)c1ccccc1C2=O
MIC50 [1]: 0.3 µM
MIC90 [1]: 0.4 µM
MBC [2]: 1.2 µM
IC50 (Vero): 5 µM
selectivity ratio [3]: 17

CCCCCCCC[n+]1c2c(n(CC(C)C)c1C)C(=O)c1ccccc1C2=O
MIC50 [1]: 2 µM
MIC90 [1]: 3 µM

CCCCn1c2c([n+](C3CCC4(CCCCC4)CC3)c1C)C(=O)c1ccccc1C2=O.[Br-]
Activity [5]: Non-Toxic
MIC50 [1]: 0.28 µM
MIC90 [1]: 0.53 µM
MBC [2]: 1.6 µM
IC50 (Vero): 15 µM
selectivity ratio [3]: 54
solubility [6]: 118 µM
permeability [7]: Not Active
half-life [8]: 20 min
bioavailability [9]: 1%
Vd [10]: 27 L/kg
clearance [11]: 38 mL/min/kg
half-life [12]: 420 min
Activity [13]: Non-Toxic
Activity [14]: Non-Toxic
Activity [15]: Non-Toxic

CCCCCC[n+]1c2c(n(CC(C)C)c1C)C(=O)c1ccccc1C2=O
MIC50 [1]: 4 µM
MIC90 [1]: 6 µM

CCCCCCn1c2c([n+](CCCCCC)c1C)C(=O)c1ccccc1C2=O
MIC50 [1]: 0.67 µM
MIC90 [1]: 1.5 µM
MBC [2]: 6.3 µM
IC50 (Vero): 14 µM
selectivity ratio [3]: 21

CC(C)/N=c1\cc2n(-c3ccc(Cl)cc3)c3ccccc3nc-2cc1Nc1ccc(Cl)cc1 [CLOFAZIMINE]
MIC50 [1]: 0.2 µM (≈ 0.0947 µg/mL)
MIC90 [1]: 0.8 µM (≈ 0.379 µg/mL)

CCCCCCCCn1c2c([n+](CCCC)c1C)C(=O)c1ccccc1C2=O.[Br-]
EC50 [16]: 250 nM
Activity [5]: Non-Toxic
MIC50 [1]: 0.82 µM
MIC90 [1]: 1.5 µM
MBC [2]: 6.3 µM
IC50 (Vero): 24 µM
selectivity ratio [3]: 29
Activity [4]: Active
fold change (FC) [17]: 7
fold change (FC) [18]: 4
Activity [19]: Active
solubility [6]: 118 µM
permeability [7]: Not Active
half-life [8]: 20 min
bioavailability [9]: 1%
Vd [10]: 27 L/kg
clearance [11]: 38 mL/min/kg
half-life [12]: 420 min
Activity [13]: Non-Toxic
Activity [14]: Non-Toxic
Activity [15]: Non-Toxic

CCCCCCn1c2c([n+](C3CCC4(CCCCC4)CC3)c1C)C(=O)c1ccccc1C2=O
MIC50 [1]: 0.3 µM
MIC90 [1]: 0.4 µM
MBC [2]: 1.6 µM
IC50 (Vero): 6.3 µM
selectivity ratio [3]: 21
